# Experimental data taken from article PMC8003391, “QSAR-Based Virtual Screening of Natural Products Database for Identification of Potent Antimalarial Hits” (Biomolecules, 2021).
# Where two headings read alike, the source gives them in different places.
# Experiments:
# [1] = test system: P. falciparum 3D7; assay: In vitro P. falciparum growth inhibition assay (SybrGreen), chloroquine-sensitive 3D7 strain; format: cell-based, Plasmodium falciparum; conditions: for inhibition at 5 µM: 3D7, read-out: inhibition of parasite growth
# Procedure: (§1) Chloroquine-sensitive (3D7) and multi-drug-resistant (W2) P. falciparum strains were cultured following the candle jar method as described by Trager and Jensen. Briefly, parasites were maintained in RPMI 1640 medium supplemented with 10% A+ human plasma at 5% CO2 atmosphere. Ring stage synchronized cultures were obtained by two consecutive treatments with a 5% D-sorbitol solution [32] in 48 h intervals.
# (§2) Parasite growth inhibition assays were conducted by distributing ring stage synchronized parasites at 2% hematocrit and 0.5% parasitemia in 96-well plates (NEST Biotechnology Co., Ltd., Wuxi, Jiangsu, China). Parasites were incubated in the presence of drugs in a two-fold 12-point serial dilution starting at 10 µM in duplicate. Chloroquine was used as an antimalarial standard. At the end of a 72 h incubation, parasitemia was determined by fluorescence reading at 490 nm excitation and 540 nm emission (BMG CLARIOstar, BMG Labtech Inc., Durham, NC, USA) using SybrGreen fluorescent dye as described by Hartwig et al.. Parasite growth inhibition was determined as a percentage relative to drug-free control. EC50 values were interpolated from log doses vs. inhibition curves in GraphPad Prism 6 (GraphPad, La Jolla, CA, USA).
# [2] = test system: P. falciparum W2; parameters: method as in PMID 25461309; conditions: read-out: EC50 against multi-resistant strain; cited from earlier work
# [3] = test system: P. falciparum W2; assay: In vitro P. falciparum growth inhibition assay (SybrGreen), multi-drug-resistant W2 strain; format: cell-based, Plasmodium falciparum; conditions: for activity more potent than artesunate: W2, compared with artesunate EC50 = 5.7 nM
# Procedure: as §1, §2
# [4] = Cytotoxicity, MTT reduction assay; format: cell-based; conditions: human
# Procedure: Cytotoxicity of selected compounds was evaluated using the MTT reduction assay (3-[4,5-dimethyl-thiazol-2-yl]-2,5-diphenyltetrazolium chloride). Human hepatoma (HepG2) cells were cultured in Dulbecco’s Modified Eagle Medium supplemented with gentamycin (40 mg/L) and 10% heat-inactivated fetal bovine serum at 37 °C and 5% CO2. Cells were seeded in 96-well plates (NEST Biotechnology Co., Ltd., Wuxi, Jiangsu, China) at 10^5 cells per well and incubated in the presence of a serial dilution of the drugs starting at 100 µM. After 72 h of incubation, MTT was added to the wells. The optical density was measured at 570 nm (CLARIOStar, Labtech BMG Inc, Durham, NC, USA) and cell viability was expressed as a percentage relative to the untreated control. CC50 values were calculated by plotting a log dose vs. viability curve in GraphPad Prism 6 (GraphPad, La Jolla, CA, USA). The selectivity index (SI) of the compounds was determined by the expression:SI = (HepG2 CC50)/(Pf EC50), where HepG2 CC50 corresponds to the cytotoxic concentration of compounds in HepG2 cells and Pf EC50 relates to the 50% inhibitory concentration on P. falciparum 3D7 strain.
# [5] = Plasmodium falciparum, 3D7, 72 h, chloroquine-sensitive 3D7 strain, 72 h, SybrGreen, ± standard deviation, read-out: EC50 Pf3D7
# [6] = Plasmodium falciparum, W2, 72 h, multi-drug-resistant W2 strain, 72 h, SybrGreen, ± standard deviation, read-out: EC50 PfW2
# [7] = multi-drug-resistant W2 strain, 72 h, SybrGreen, ± standard deviation, read-out: EC50 PfW2
# [8] = chloroquine-sensitive 3D7 strain, 72 h, SybrGreen, ± standard deviation, read-out: EC50 Pf3D7
# [9] = HepG2 cells, 72 h, MTT, read-out: CC50 HepG2
# [10] = Plasmodium falciparum, W2, W2, text value, read-out: EC50 against P. falciparum W2
# [11] = Plasmodium falciparum, 3D7, 3D7, text value, read-out: EC50 against P. falciparum 3D7
compound,measurement,setting,value
"C[C@H]1[C@H](OC(=O)CCC(=O)O)O[C@@H]2O[C@@]3(C)CC[C@H]4[C@H](C)CC[C@@H]1[C@@]24OO3 [Artesunate, reference compound]",EC50,[1]; [5],0.0016 µM
same,EC50,[2],0.0057 µM
"CCN(CC)CCCC(C)Nc1ccnc2cc(Cl)ccc12 (stereo not drawn) [Chloroquine, reference compound]",EC50,"[3]; Plasmodium falciparum, W2, 72 h, read-out: EC50 PfW2",0.147 ± 0.04 µM
same,EC50,"[1]; Plasmodium falciparum, 3D7, 72 h, read-out: EC50 Pf3D7",0.0079 µM
COc1ccccc1CNC(=O)C1CN2CCC1CC2Cn1cc(-c2cccc(N)c2)nn1 (stereo not drawn) [LDT-586],EC50,[3]; [6],< 5 µM
same,EC50,[3]; [7],3.44 ± 1.3 µM
same,CC50 at 72 h,[4],98.6 µM
same,EC50,[1]; [5],< 5 µM
same,inhibition at 5 µM,"[1]; Plasmodium falciparum, 72 h",> 70%
same,EC50,[1]; [8],4.52 ± 0.91 µM
CCOC(=O)c1ccc2[nH]cc(C(=O)OCC)c(=O)c2c1 [LDT-588],CC50 at 72 h,[4]; [9],67 ± 2.28 µM
same,EC50,[1]; [5],< 5 µM
same,inhibition at 5 µM,"[1]; Plasmodium falciparum, 72 h",> 70%
same,EC50,[1]; [8],3.84 ± 1.45 µM
Cn1c(=O)[nH]c2nnc(-c3ccc(Cl)cc3)nc2c1=O [LDT-592],EC50,[3]; [6],3.11 ± 0.54 µM
same,CC50 at 72 h,[4]; [9],17 µM
same,EC50,[1]; [5],9.09 ± 3.74 µM
same,inhibition at 5 µM,"[1]; Plasmodium falciparum, 72 h",> 70%
COC(CNC(=O)CCC(=O)OC1OC2OC3(C)CCC4C(C)CCC(C1C)C24OO3)OC (stereo not drawn) [LDT-597],EC50,[3]; [10],0.00056 µM
same,activity more potent than artesunate,[3],about 10 fold
same,CC50 at 72 h,[4]; [9],18.3 ± 3.51 µM
same,EC50,[1]; [11],0.00054 µM
same,inhibition at 5 µM,"[1]; Plasmodium falciparum, 72 h",> 70%
CC(NC(=O)CCCNC(=O)CCC(=O)OC1OC2OC3(C)CCC4C(C)CCC(C1C)C24OO3)C(=O)O (stereo not drawn) [LDT-598],EC50,[3]; [10],0.00059 µM
same,activity more potent than artesunate,[3],about 10 fold
same,CC50 at 72 h,[4]; [9],25.9 ± 1.13 µM
same,EC50,[1]; [11],0.00078 µM
same,inhibition at 5 µM,"[1]; Plasmodium falciparum, 72 h",> 70%
COc1ccc(C2c3[nH]c4ccccc4c3C[C@H]3C(=O)N(C4CC4)CC(=O)N23)cc1OC (stereo partly drawn) [LDT-599],EC50,[3]; [6],< 5 µM
same,EC50,[3]; [7],2.74 ± 0.78 µM
same,CC50 at 72 h,[4]; [9],21 ± 2.51 µM
same,EC50,[1]; [5],< 5 µM
same,inhibition at 5 µM,"[1]; Plasmodium falciparum, 72 h",> 70%
same,EC50,[1]; [8],3.68 ± 1.92 µM
COc1cc(C2NCCc3cc(OC)c(OC)cc32)ccc1O (stereo not drawn) [LDT-601],EC50,[3]; [6],0.65 ± 0.47 µM
same,CC50 at 72 h,[4]; [9],21.8 ± 4.16 µM
same,EC50,[1]; [5],6.61 ± 3.2 µM
same,inhibition at 5 µM,"[1]; Plasmodium falciparum, 72 h",> 70%
COc1ccc(C2CC(=O)NC3=C2C(=O)C2(Oc4c(Cl)c(OC)cc(OC)c4C2=O)C(C)C3)cc1O (stereo not drawn) [LDT-614],EC50,[3]; [6],5.65 ± 3.11 µM
same,CC50 at 72 h,[4]; [9],23.6 ± 1.82 µM
same,EC50,[1]; [5],5.26 ± 0.52 µM
same,inhibition at 5 µM,"[1]; Plasmodium falciparum, 72 h",> 70%
